Assay results published in patent publication US12410208B2, “(2-acetamidyl)thio-beta-D-galactopyranoside derivatives” (Idorsia Pharmaceuticals Ltd, priority 2020, dated 2025).
Where two headings read alike, the source gives them in different places.

Columns and labels:
[1] = target: biotinylated human Gal-3 (hGal-3) (Homo sapiens, UniProt P17931); assay: Competitive binding assay: biotinylated hGal-3 binding to microplate-adsorbed asialofetuin (ASF), spectrophotometric
Procedure, shortened: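 Competitive binding of biotinylated hGal-3 to plate-adsorbed asialofetuin was measured with serially diluted compounds over 3 h at 4° C. Bound protein was detected with streptavidin-peroxidase and ABTS substrate by absorbance. IC50 values are means of several measurements.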

human Gal-1 (hGal-1) = human Gal-1 (hGal-1) (Homo sapiens, UniProt P09382); assay: Competitive binding assay: biotinylated hGal-1 binding to microplate-adsorbed asialofetuin (ASF), spectrophotometric; conditions: hGal-1 binding to asialofetuin; Table 15; R and S epimers of selected Examples also listed; read-out: IC50 (Galectin-1 inhibition)
Chain of human Gal-1 (hGal-1) (P09382 whole entry): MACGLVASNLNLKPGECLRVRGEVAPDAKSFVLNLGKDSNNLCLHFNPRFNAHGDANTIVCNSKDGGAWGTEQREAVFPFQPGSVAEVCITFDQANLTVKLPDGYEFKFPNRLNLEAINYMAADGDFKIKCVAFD
Procedure, shortened: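 Biotinylated hGal-1 (300-1000 ng/mL) incubated with compound on asialofetuin-coated plates 3 hours at 4 °C, washed, then streptavidin-peroxidase (80 ng/mL) 1 hour at 4 °C. ABTS substrate read spectrophotometrically; IC50 reported as mean of several measurements.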

[2] = Gal-3 inhibition, Table 5, read-out: IC50
[3] = Table 11, hGal-3, read-out: IC50 (Gal-3 inhibition)
[4] = Table 9, hGal-3, read-out: IC50 (Gal-3 inhibition)
[5] = Table 8, hGal-3, read-out: IC50 (Gal-3 inhibition)
[6] = Gal-3 inhibition, Table 7, read-out: IC50

Chain of biotinylated human Gal-3 (hGal-3) (P17931 whole entry): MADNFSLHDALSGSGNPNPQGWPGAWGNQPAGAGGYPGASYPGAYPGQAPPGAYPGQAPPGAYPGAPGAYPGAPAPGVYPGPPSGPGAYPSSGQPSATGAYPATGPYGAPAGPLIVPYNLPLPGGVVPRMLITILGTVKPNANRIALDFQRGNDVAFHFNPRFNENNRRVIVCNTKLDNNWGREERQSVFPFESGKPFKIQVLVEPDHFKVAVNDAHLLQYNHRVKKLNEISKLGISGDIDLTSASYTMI

Row | IC50 (human Gal-1 (hGal-1)) | IC50 [1, 2] | Molecule | other results
1 | 30 nM |  | CC(C)(O)C(S[C@@H]1O[C@H](CO)[C@H](O)[C@H](n2cc(-c3cc(F)c(F)c(F)c3)nn2)[C@H]1O)C(=O)N1CCCCC1 (stereo partly drawn) [Example 2.31.208., 2-(((2S,3R,4S,5R,6R)-3,5-Dihydroxy-6-(hydroxymethyl)-4-(4-(3,4,5-trifluorophenyl)-1H-1,2,3-triazol-1-yl)tetrahydro-2H-pyran-2-yl)thio)-3-hydroxy-3-methyl-1-(piperidin-1-yl)butan-1-one] | IC50 ([1]; Table 6, hGal-3, read-out: IC50 (Gal-3 inhibition)): 70 nM
2 | 1480 nM | 440 nM | (R)-N-Cyclobutyl-2-(4,4-difluoro-1-hydroxycyclohexyl)-2-(((2S,3R,4S,5R,6R)-3,5-dihydroxy-6-(hydroxymethyl)-4-(4-(3,4,5-trifluorophenyl)-1H-1,2,3-triazol-1-yl)tetrahydro-2H-pyran-2-yl)thio)-N-methylacetamide [Example 2.44.206R.] | 
3 | 170 nM | 150 nM | CN(CC(C)(C)C)C(=O)C(S[C@@H]1O[C@H](CO)[C@H](O)[C@H](n2cc(-c3cc(F)c(F)c(F)c3)nn2)[C@H]1O)C1(O)CCCC1 (stereo partly drawn) [Example 2.38.228., 2-(((2S,3R,4S,5R,6R)-3,5-Dihydroxy-6-(hydroxymethyl)-4-(4-(3,4,5-trifluorophenyl)-1H-1,2,3-triazol-1-yl)tetrahydro-2H-pyran-2-yl)thio)-2-(1-hydroxycyclopentyl)-N-methyl-N-neopentylacetamide] | 
4 | 30 nM |  | CCN(C)C(=O)C(S[C@@H]1O[C@H](CO)[C@H](O)[C@H](n2cc(-c3nc(Br)cs3)nn2)[C@H]1O)C1(O)CCOCC1 (stereo partly drawn) [Example 14.41.203., 2-(((2S,3R,4S,5R,6R)-4-(4-(4-Bromothiazol-2-yl)-1H-1,2,3-triazol-1-yl)-3,5-dihydroxy-6-(hydroxymethyl)tetrahydro-2H-pyran-2-yl)thio)-N-ethyl-2-(4-hydroxytetrahydro-2H-pyran-4-yl)-N-methylacetamide] | IC50 [1, 3]: 150 nM
5 | 30 nM |  | CN(C(=O)[C@@H](S[C@@H]1O[C@H](CO)[C@H](O)[C@H](n2cc(-c3cc(F)c(F)c(F)c3)nn2)[C@H]1O)C1(O)CCOCC1)c1ccccn1 [Example 2.41.233S.] | IC50 [1, 4]: 40 nM
6 | 33900 nM |  | CCN(C)C(=O)[C@H](S[C@@H]1O[C@H](CO)[C@H](O)[C@H](n2cc(-c3cc(F)c(F)c(F)c3)nn2)[C@H]1O)C1(O)CCN(S(C)(=O)=O)CC1 [Example 2.47.203R., (R)-2-(((2S,3R,4S,5R,6R)-3,5-Dihydroxy-6-(hydroxymethyl)-4-(4-(3,4,5-trifluorophenyl)-1H-1,2,3-triazol-1-yl)tetrahydro-2H-pyran-2-yl)thio)-N-ethyl-2-(4-hydroxy-1-(methylsulfonyl)piperidin-4-yl)-N-methylacetamide] | IC50 [1, 5]: 6770 nM
7 | 7100 nM |  | CO[C@@H]1[C@@H](n2cc(-c3cc(F)c(F)c(F)c3)nn2)[C@@H](O)[C@@H](CO)O[C@H]1S[C@@H](C(=O)N(C)c1ccccn1)C1(O)CCC(F)(F)CC1 [Example 2.41.233R.I.] | IC50 [1, 4]: 7240 nM
8 | 320 nM |  | CCN(C)C(=O)C(S[C@@H]1O[C@H](CO)[C@H](O)[C@H](n2cc(-c3cc(F)c(Cl)c(F)c3)nn2)[C@H]1O)C1(O)CCOCC1 (stereo partly drawn) [Example 11.41.203., 2-(((2S,3R,4S,5R,6R)-4-(4-(4-Chloro-3,5-difluorophenyl)-1H-1,2,3-triazol-1-yl)-3,5-dihydroxy-6-(hydroxymethyl)tetrahydro-2H-pyran-2-yl)thio)-N-ethyl-2-(4-hydroxytetrahydro-2H-pyran-4-yl)-N-methylacetamide] | IC50 [1, 3]: 30 nM
9 | 340 nM |  | CN(CC1CC1)C(=O)C(S[C@@H]1O[C@H](CO)[C@H](O)[C@H](n2cc(-c3cc(F)c(F)c(F)c3)nn2)[C@H]1O)C(O)Cc1ccccc1 (stereo partly drawn) [Example 2.64.218., N-(Cyclopropylmethyl)-2-(((2S,3R,4S,5R,6R)-3,5-dihydroxy-6-(hydroxymethyl)-4-(4-(3,4,5-trifluorophenyl)-1H-1,2,3-triazol-1-yl)tetrahydro-2H-pyran-2-yl)thio)-3-hydroxy-N-methyl-4-phenylbutanamide] | IC50 [1, 6]: 110 nM
10 | 110 nM |  | CCN(C)C(=O)C(S[C@@H]1O[C@H](CO)[C@H](O)[C@H](n2cc(-c3cc(F)c(F)c(F)c3)nn2)[C@H]1O)C1(O)CCN(S(C)(=O)=O)CC1 (mixture of isomers) [Example 2.47.203., 2-(((2S,3R,4S,5R,6R)-3,5-Dihydroxy-6-(hydroxymethyl)-4-(4-(3,4,5-trifluorophenyl)-1H-1,2,3-triazol-1-yl)tetrahydro-2H-pyran-2-yl)thio)-N-ethyl-2-(4-hydroxy-1-(methylsulfonyl)piperidin-4-yl)-N-methylacetamide] | IC50 [1, 5]: 30 nM
11 | 46000 nM | 8610 nM | CN(CC(C)(C)F)C(=O)[C@H](S[C@@H]1O[C@H](CO)[C@H](O)[C@H](n2cc(-c3cc(F)c(F)c(F)c3)nn2)[C@H]1O)C1(O)CCC1 [Example 2.34.222R., (R)-2-(((2S,3R,4S,5R,6R)-3,5-Dihydroxy-6-(hydroxymethyl)-4-(4-(3,4,5-trifluorophenyl)-1H-1,2,3-triazol-1-yl)tetrahydro-2H-pyran-2-yl)thio)-N-(2-fluoro-2-methylpropyl)-2-(1-hydroxycyclobutyl)-N-methylacetamide] | 
12 | 100 nM |  | CN(C(=O)[C@@H](S[C@@H]1O[C@H](CO)[C@H](O)[C@H](n2cc(-c3cc(F)c(F)c(F)c3)nn2)[C@H]1O)C1(O)CCOCC1)c1cccnc1 [Example 2.41.234S.] | IC50 [1, 4]: 100 nM
13 | 220 nM | 410 nM | CN(CC(C)(C)F)C(=O)C(S[C@@H]1O[C@H](CO)[C@H](O)[C@H](n2cc(-c3cc(F)c(F)c(F)c3)nn2)[C@H]1O)C1(O)CCC1 (stereo partly drawn) [Example 2.34.222., 2-(((2S,3R,4S,5R,6R)-3,5-Dihydroxy-6-(hydroxymethyl)-4-(4-(3,4,5-trifluorophenyl)-1H-1,2,3-triazol-1-yl)tetrahydro-2H-pyran-2-yl)thio)-N-(2-fluoro-2-methylpropyl)-2-(1-hydroxycyclobutyl)-N-methylacetamide] | 
14 | 180 nM |  | N-Cyclopropyl-4-(2-(ethyl(methyl)amino)-1-(((2S,3R,4S,5R,6R)-5-hydroxy-6-(hydroxymethyl)-3-methoxy-4-(4-(3,4,5-trifluorophenyl)-1H-1,2,3-triazol-1-yl)tetrahydro-2H-pyran-2-yl)thio)-2-oxoethyl)-4-hydroxypiperidine-1-carboxamide [Example 2.49.226.I.] | IC50 [1, 5]: 100 nM
15 | 5130 nM | 1050 nM | O=C([C@H](S[C@@H]1O[C@H](CO)[C@H](O)[C@H](n2cc(-c3cc(F)c(F)c(F)c3)nn2)[C@H]1O)C1(O)CCC(F)(F)CC1)N1CC(F)(F)C1 [Example 2.44.227R., (R)-2-(4,4-Difluoro-1-hydroxycyclohexyl)-1-(3,3-difluoroazetidin-1-yl)-2-(((2S,3R,4S,5R,6R)-3,5-dihydroxy-6-(hydroxymethyl)-4-(4-(3,4,5-trifluorophenyl)-1H-1,2,3-triazol-1-yl)tetrahydro-2H-pyran-2-yl)thio)ethan-1-one] | 
16 | 3400 nM |  | CCC(O)C(S[C@@H]1O[C@H](CO)[C@H](O)[C@H](n2cc(-c3cc(F)c(F)c(F)c3)nn2)[C@H]1O)C(=O)N1CCC1 (stereo partly drawn) [Example 2.60.206., 1-(Azetidin-1-yl)-2-(((2S,3R,4S,5R,6R)-3,5-dihydroxy-6-(hydroxymethyl)-4-(4-(3,4,5-trifluorophenyl)-1H-1,2,3-triazol-1-yl)tetrahydro-2H-pyran-2-yl)thio)-3-hydroxypentan-1-one] | IC50 [1, 6]: 500 nM
17 | 190 nM | 40 nM | (S)-N-Cyclobutyl-2-(4,4-difluoro-1-hydroxycyclohexyl)-2-(((2S,3R,4S,5R,6R)-3,5-dihydroxy-6-(hydroxymethyl)-4-(4-(3,4,5-trifluorophenyl)-1H-1,2,3-triazol-1-yl)tetrahydro-2H-pyran-2-yl)thio)-N-methylacetamide [Example 2.44.206S.] | 
18 | 9800 nM |  | CN(C(=O)[C@H](S[C@@H]1O[C@H](CO)[C@H](O)[C@H](n2cc(-c3cc(F)c(F)c(F)c3)nn2)[C@H]1O)C1(O)CCOCC1)c1ccccn1 [Example 2.41.233R.] | IC50 [1, 4]: 8500 nM
19 | 7290 nM |  | Cn1ccc(C(O)C(S[C@@H]2O[C@H](CO)[C@H](O)[C@H](n3cc(-c4cc(F)c(F)c(F)c4)nn3)[C@H]2O)C(=O)N2CCC2)n1 (stereo partly drawn) [Example 2.65.206., 1-(Azetidin-1-yl)-2-(((2S,3R,4S,5R,6R)-3,5-dihydroxy-6-(hydroxymethyl)-4-(4-(3,4,5-trifluorophenyl)-1H-1,2,3-triazol-1-yl)tetrahydro-2H-pyran-2-yl)thio)-3-hydroxy-3-(1-methyl-1H-pyrazol-3-yl)propan-1-one] | IC50 [1, 6]: 1040 nM
20 | 350 nM | 130 nM | 2-(4,4-Difluoro-1-hydroxycyclohexyl)-2-(((2S,3R,4S,5R,6R)-3,5-dihydroxy-6-(hydroxymethyl)-4-(4-(3,4,5-trifluorophenyl)-1H-1,2,3-triazol-1-yl)tetrahydro-2H-pyran-2-yl)thio)-N-(2-fluoro-2-methylpropyl)-N-methylacetamide [Example 2.44.222.] | 
